The record followed here is patent US12318398B2, “MST1 kinase inhibitor and use thereof” (priority 2018, dated 2025).

Like-named read-outs stand apart in the source and are kept apart here.

For one assay, the target named is MST1 (Homo sapiens (Human), UniProt Q13043). Nature of the assay: In vitro enzyme activity test (ADP-GLO). The class given is biochemical. Here is the method:
The IC50 values of the compounds against MST1 were determined. The protein kinase MST1 and the substrate were obtained from commercial sources.
5.4 μL of protein kinase MST1 diluted to a certain concentration (final concentration was 2.5 ng/μL) and 1 μL of serially diluted drug compounds and control compound XMU-MP-1 were taken to react at room temperature for 10 minutes (final drug concentrations were 10 μM, 1 μM, 0.3 μM, 0.1 μM, 0.03 μM, 0.01 μM, 0.003 μM, 0.001 μM, respectively).
6 μL of a mixture of ATP (with a final reaction concentration of 50 μM) and substrate was added to the above reaction tube to react at 37° C. for 1 hour. The reaction buffer was 40 mM Tris, 7.5; 20 mM MgCl2; 0.1 mg/ml BSA; 50 μM DTT.
5 μL of the kinase mixture after the reaction was taken to a 384-well plate, and 5 μL of ADP-GLO™ reagent was added thereto. After reaction at room temperature for 40 minutes, the kinase reaction was terminated and the remaining ATP was consumed.
10 μL of a kinase detection reagent was added to convert ADP into ATP, and a coupled luciferase/luciferin reaction was utilized to detect the newly synthesized ATP. Envision was used to read and plot the data, and calculate the IC50 value.
Background: ADP-Glo first removes unused ATP, then detects ADP through luciferase.

The subject of the next assay is C57BL/6 mice. Nature of the assay: Liver injury repair experiment (paracetamol/APAP-induced). The class given is in vivo. Here is the method: C57BL/6 mice, male, 20 g, were maintained in a SPF animal room. Thirty C57BL/6 mice were fasted for 12 hours overnight, and 5 mice of which were intraperitoneally injected with normal saline to act as a normal control group, and the other 25 mice were intraperitoneally injected with paracetamol (APAP) (purchased from Sigma)-600 mg/kg, and randomly divided into 5 groups after 30 minutes, wherein the 5 groups include vehicle (5% DMSO in water), compound 1-1-po, compound 1-2-po, compound 1-4-po, XMU-MP-1-ip groups. Mice in the vehicle group were administered intragastrically with vehicle control; mice in the compound 1-1-po, compound 1-2-po, compound 1-4-po groups were administered intragastrically with compound 1 at 1 mg/kg, 2 mg/kg or 4 mg/kg, respectively; mice in the XMU-MP-1-ip group were intraperitoneally administered with the control compound XMU-MP-1 at 1 mg/kg. After the administration, the body weight of the mice was monitored and the survival status of the mice was observed.

Assay [1] relates to autophosphorylation of MST1. Nature of the assay: Effect on MST1 signaling pathway of pancreatic β cells. Type of assay: cell-based, mouse. The conditions noted are these: MIN-6 cells, 1 μM, 72 hours, 33.3 mM glucose. Here is the method:
(§1) The effects of compound 1 and the control compound XMU-MP-1 on MST1 signaling pathway such as autophosphorylation of MST1, apoptosis signaling pathway such as cleavage of four proteins Caspase9/7/3 and PARP, expression of BIM, BAX, BCL-2, BCL-XL protein, proliferation-related signaling pathway such as autophosphorylation of AKT and ERK, and phosphorylation and protein expression of insulin secretion transcription factor PDX1 were tested in mouse pancreatic β-cells, MIN-6 cells (Hunan Fenghuishengwu technology Co., Ltd.). Compound 1 of different concentrations (0 μM, 0.3 μM, 1 μM, 3 μM in DMSO) and XMU-MP-1 of 1 μM (in DMSO) were used to treat the cell line for 72 hours in a medium with a glucose content of 33.3 mM, respectively. One of the control DMSO group involved 5.5 mM glucose and the other one involved 33.3 mM glucose. The samples were collected.

The subject of assay [2] is Caspase9/7/3, PARP, BIM, BCL-XL. The assay is described as follows: Effect on apoptosis signaling pathway of pancreatic β cells. Type of assay: cell-based, mouse. Particulars: MIN-6 cells, 1 μM, 72 hours, 33.3 mM glucose. How it is done: as §1
A further assay has as its system PDX1. The assay is described as follows: Effect on insulin secretion transcription factor PDX1 in pancreatic β cells. The conditions noted are these: MIN-6 cells, 72 hours, 33.3 mM glucose. Type of assay: cell-based, mouse. How it is done: as §1
Assay [3] concerns autophosphorylation of AKT and ERK. Nature of the assay: Effect on proliferation-related signaling pathway of pancreatic β cells. Type of assay: cell-based, mouse. Particulars: MIN-6 cells, 72 hours, 33.3 mM glucose. How it is done: as §1
A further assay relates to MIN-6 cells. The assay is described as follows: Proliferation of MIN-6 cells (cell counter). Particulars: 0.3-3 μM, 72 hours, as the drug concentration increases. How it is done: as §1
JIMBIO cell counter (EXCEL HERO TECHNOLOGY LIMITED) was used to detect the effect on the proliferation of MIN-6 cells after 72 hours of the administration.

[4] abbreviates: read-out: MST1 (IC50/μM), ATP 50 μM, 37° C. 1 hour.
Setting [5] is: ATP 50 μM, 37° C. 1 hour, read-out: MST1 (IC50/μM).

Sequence of MST1 (Q13043 whole entry): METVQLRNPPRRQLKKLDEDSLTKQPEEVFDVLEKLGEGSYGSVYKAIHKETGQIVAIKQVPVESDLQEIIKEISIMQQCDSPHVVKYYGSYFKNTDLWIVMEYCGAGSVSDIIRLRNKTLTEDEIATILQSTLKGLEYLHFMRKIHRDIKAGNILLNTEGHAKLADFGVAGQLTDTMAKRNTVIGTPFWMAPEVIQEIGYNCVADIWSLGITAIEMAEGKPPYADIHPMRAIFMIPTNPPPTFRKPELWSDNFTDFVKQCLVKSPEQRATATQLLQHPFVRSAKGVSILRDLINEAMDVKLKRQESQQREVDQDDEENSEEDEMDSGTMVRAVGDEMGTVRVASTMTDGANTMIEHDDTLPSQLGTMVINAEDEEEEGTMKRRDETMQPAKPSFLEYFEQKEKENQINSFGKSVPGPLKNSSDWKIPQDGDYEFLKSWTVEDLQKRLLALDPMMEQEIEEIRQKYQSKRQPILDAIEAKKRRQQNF

With `Cc1ccccc1C1C(=O)N(C)c2cnc(Nc3ccc(S(N)(=O)=O)cc3)nc2N1C` (centres unmarked) [Compound 25, 4-((5,8-dimethyl-6-oxo-7-(o-methylphenyl)-5,6,7,8-tetrahydropteridin-2-yl)amino)benzsulfamide], at MST1 (setting [4]), the IC50 turned out to be 0.0227 µM.

For `CC(C)CC1C(=O)N(C)c2cnc(Nc3ccc(S(N)(=O)=O)cc3)nc2N1C` (centres unmarked) [Compound 16, 4-((7-isobutyl-5,8-dimethyl-6-oxo-5,6,7,8-tetrahydropteridin-2-yl)amino)benzsulfamide], the IC50 on MST1 (setting [5]) is 0.0767 µM.

With `CN1C(=O)C(C2CC2)N(C)c2nc(Nc3ccc(S(N)(=O)=O)cc3)ncc21` (centres unmarked) [Compound 19, 4-((7-cyclopropyl-5,8-dimethyl-6-oxo-5,6,7,8-tetrahydropteridin-2-yl)amino)benzsulfamide], the IC50 on MST1 (setting [5]) stood at 0.137 µM.

`CN1C(=O)C(c2cccc(F)c2)N(C)c2nc(Nc3ccc(S(N)(=O)=O)cc3)ncc21` (centres unmarked) [Compound 11, 4-((7-(3-fluorophenyl)-5,8-dimethyl-6-oxo-5,6,7,8-tetrahydropteridin-2-yl)amino)benzsulfamide]: the IC50 at MST1 (setting [5]) was determined as 0.134 µM.

Turning to `CCNS(=O)(=O)c1ccc(Nc2ncc3c(n2)N(C)C(c2c(F)cccc2F)C(=O)N3C)cc1` (centres unmarked) [Compound 38, 4-((7-(2,6-difluorophenyl)-5,8-dimethyl-6-oxo-5,6,7,8-tetrahydropteridin-2-yl)amino)-N-ethylbenzsulfamide], the IC50 at MST1 (setting [4]) is 0.0516 µM.

`CN1C(=O)C2(CCC2)N(C)c2nc(Nc3ccc(S(N)(=O)=O)cc3)ncc21` [Compound 15, 4-((5′,8′-dimethyl-6′-oxo-5′,8′-dihydro-6′H-spiro[cyclobutan-1,7′-pteridin]-2′-yl)amino)benzsulfamide]: the IC50 on MST1 (setting [5]) came out at 0.141 µM.

Take `CN1C(=O)C(c2cccs2)N(C)c2nc(Nc3ccc(S(N)(=O)=O)cc3)ncc21` (centres unmarked) [Compound 20, 4-((5,8-dimethyl-6-oxo-7-(thien-2-yl)-5,6,7,8-tetrahydropteridin-2-yl)amino)benzsulfamide]: on MST1 (setting [5]), the IC50 was found to be 0.0879 µM.

In the case of `CN1C(=O)C(c2c(F)cccc2F)N(C)c2nc(Nc3ccc(S(=O)(=O)N(C)C4CC4)cc3)ncc21` (centres unmarked) [Compound 32, N-cyclopropyl-4-((7-(2,6-difluorophenyl)-5,8-dimethyl-6-oxo-5,6,7,8-tetrahydropteridin-2-yl)amino)-N-methylbenzsulfamide], at MST1 (setting [4]), the IC50 stood at 0.0316 µM.

As for `CN1C(=O)[C@H](c2ccccc2)N(C)c2nc(Nc3ccc(S(N)(=O)=O)cc3)ncc21` [Compound 4, (S)-4-((5,8-dimethyl-6-oxo-7-phenyl-5,6,7,8-tetrahydropteridin-2-yl)amino)benzsulfamide], the IC50 at MST1 (setting [4]) was 0.197 µM.

With `CN1C(=O)[C@@H](c2ccccc2)N(C)c2nc(Nc3ccc(S(N)(=O)=O)cc3)ncc21` [Compound 10, (R)-4-((5,8-dimethyl-6-oxo-7-phenyl-5,6,7,8-tetrahydropteridin-2-yl)amino)benzsulfamide], on MST1 (setting [4]), the IC50 was determined as 0.0987 µM.

For the molecule `CN1C(=O)C(c2ccccc2F)N(C)c2nc(Nc3ccc(S(N)(=O)=O)cc3)ncc21` (centres unmarked) [Compound 21, 4-((7-(2-fluorophenyl)-5,8-dimethyl-6-oxo-5,6,7,8-tetrahydropteridin-2-yl)amino)benzsulfamide], the IC50 at MST1 (setting [5]) was 0.0753 µM.

As to `CN1C(=O)C2(CCCC2)N(C)c2nc(Nc3ccc(S(N)(=O)=O)cc3)ncc21` [Compound 14, 4-((5′,8′-dimethyl-6′-oxo-5′,8′-dihydro-6′H-spiro[cyclopentan-1,7′-pteridin]-2′-yl)amino)benzsulfamide], the IC50 on MST1 (setting [5]) is 0.129 µM.

Take `CCCC1C(=O)N(C)c2cnc(Nc3ccc(S(N)(=O)=O)cc3)nc2N1C` (centres unmarked) [Compound 17, 4-((5,8-dimethyl-6-oxo-7-propyl-5,6,7,8-tetrahydropteridin-2-yl)amino)benzsulfamide]: the IC50 at MST1 (setting [5]) stood at 0.206 µM.

For the molecule `CN1C(=O)C(c2c(F)cccc2F)N(C)c2nc(Nc3ccc(S(N)(=O)=O)cc3)ncc21` (centres unmarked) [Compound 1, 4-((7-(2,6-difluorophenyl)-5,8-dimethyl-6-oxo-5,6,7,8-tetrahydropteridin-2-yl)amino)benzsulfamide], the IC50 at MST1 (setting [4]) came to 0.023 µM. In addition, the “survival rate of the mice” value with C57BL/6 mice (1 mg/kg intragastrically after APAP 600 mg/kg ip) worked out at 80%. For the same molecule, in the assay with C57BL/6 mice (2 mg/kg intragastrically after APAP 600 mg/kg ip), the “survival of the mice” value is listed as “all escaped from death”. Also, in the assay with C57BL/6 mice (4 mg/kg intragastrically after APAP 600 mg/kg ip), the “survival of the mice” value was “all escaped from death”. Besides, the weight of mice result in the assay on C57BL/6 mice (after APAP 600 mg/kg ip, compound 1 po 1-4 mg/kg, XMU-MP-1 ip 1 mg/kg) is given as “can gradually recover”. In addition, the “autophosphorylation of MST1” value in assay [1] is on record as “significantly inhibit”. For the same molecule, in assay [2], the “cleavage of the four proteins Caspase9/7/3 and PARP” value is “inhibit the cleavage”; the “expression of pro-apoptosis-related proteins such as BIM” value was “down-regulate”; the “expression of the anti-apoptotic protein BCL-XL” value was “promote the expression”. Further, in the assay with PDX1, the “expression of PDX1” value was “promotes the expression of PDX1 to a certain extent” and the “phosphorylation of the transcription factor PDX1” value is given as “a certain inhibitory effect”. In addition, in assay [3], the AKT autophosphorylation entry is “does not affect” and the ERK autophosphorylation entry is listed as “can activate”. In addition, the cell proliferation entry in the assay with MIN-6 cells is reported as “can promote cell proliferation”.

Take `CN1C(=O)C(c2ccccc2)N(C)c2nc(Nc3ccc(S(=O)(=O)NC4CC4)cc3)ncc21` (centres unmarked) [Compound 6, N-cyclopropyl-4-((5,8-dimethyl-6-oxo-7-phenyl-5,6,7,8-tetrahydropteridin-2-yl)amino)benzsulfamide]: the IC50 at MST1 (setting [4]) came out at 0.143 µM.

`CN1C(=O)C(c2c(F)cccc2F)N(C)c2nc(Nc3ccc(S(=O)(=O)NC4CC4)cc3)ncc21` (centres unmarked) [Compound 27, N-cyclopropyl-4-((7-(2,6-difluorophenyl)-5,8-dimethyl-6-oxo-5,6,7,8-tetrahydropteridin-2-yl)amino)benzsulfamide]: the IC50 at MST1 (setting [4]) was 0.113 µM.

`CN1C(=O)C2(CC2)N(C)c2nc(Nc3ccc(S(N)(=O)=O)cc3)ncc21` [Compound 7, 4-((5′,8′-dimethyl-6′-oxo-5′,8′-dihydro-6′H-spiro[cyclopropan-1,7′-pteridin]-2′-yl)amino)benzsulfamide]: the IC50 at MST1 (setting [5]) worked out at 0.103 µM.

As to `CN1C(=O)C(c2ccccc2C(F)(F)F)N(C)c2nc(Nc3ccc(S(N)(=O)=O)cc3)ncc21` (centres unmarked) [Compound 22, 4-((5,8-dimethyl-6-oxo-7-(2-(trifluoromethyl)phenyl)-5,6,7,8-tetrahydropteridin-2-yl)amino)benzsulfamide], on MST1 (setting [5]), the IC50 was 0.0563 µM.

For `CN1C(=O)C(c2c(F)cccc2F)N(C)c2nc(Nc3ccc(S(=O)(=O)NCC4CC4)cc3)ncc21` (centres unmarked) [Compound 33, N-(cyclopropylmethyl)-4-((7-(2,6-difluorophenyl)-5,8-dimethyl-6-oxo-5,6,7,8-tetrahydropteridin-2-yl)amino)benzsulfamide], at MST1 (setting [5]), the IC50 worked out at 0.0796 µM.
